Patent US7589108B2, “1-Heterocyclylalkyl-3-sulfonylindole or -indazole derivatives as 5-hydroxytryptamine-6 ligands” (Wyeth, priority 2002, dated 2009)
Where a name gives a salt, the structure may show the parent alone. Read-outs that look alike come from different tables or passages of the source.

Columns and labels:
[1] = molecular target: T1, human cloned 5-HT6 receptors (Homo sapiens, UniProt P50406); test: 5-HT6 binding affinity ([3H]-LSD displacement, membranes of Hela cells)
T1 construct: expressed in transfected cells; host or cells: HeLa cells
Procedure: The affinity of test compounds for the serotonin 5-HT6 receptor is evaluated in the following manner. Cultured Hela cells expressing human cloned 5-HT6 receptors are harvested and centrifuged at low speed (1,000×g) for 10.0 min to remove the culture media. The harvested cells are suspended in half volume of fresh physiological phosphate buffered saline solution and recentrifuged at the same speed. This operation is repeated. The collected cells are then homogenized in ten volumes of 50 mM Tris.HCl (pH 7.4) and 0.5 mM EDTA. The homogenate is centrifuged at 40,000×g for 30.0 min and the precipitate is collected. The obtained pellet is resuspended in 10 volumes of Tris.HCl buffer and recentrifuged at the same speed. The final pellet is suspended in a small volume of Tris.HCl buffer and the tissue protein content is determined in aliquots of 10-25 μl volumes. Bovine Serum Albumin is used as the standard in the protein determination according to the method described in Lowry et al., J. Biol. Chem., 193:265 (1951). The volume of the suspended cell membranes is adjusted to give a tissue protein concentration of 1.0 mg/ml of suspension. The prepared membrane suspension (10 times concentrated) is aliquoted in 1.0 ml volumes and stored at −70° C. until used in subsequent binding experiments.
Binding experiments are performed in a 96 well microtiter plate format, in a total volume of 200 μl. […] The test compounds are added in 20.0 μl volume.
The reaction is allowed to proceed in the dark for 120 min at room temperature, at which time, the bound ligand-receptor complex is filtered off on a 96 well unifilter with a Packard Filtermate® 196 Harvester. The bound complex caught on the filter disk is allowed to air dry and the radioactivity is measured in a Packard TopCount® equipped with six photomultiplier detectors, after the addition of 40.0 μl Microscint®-20 scintillant to each shallow well. The unifilter plate is heat-sealed and counted in a PackardTopCount® with a tritium efficiency of 31.0%.
Binding in the presence of varying concentrations of test compound is expressed as a percentage of specific binding in the absence of test compound. The results are plotted as log % bound versus log concentration of test compound. […] A linear regression line of data points is plotted, from which the IC50 value is determined and the Ki value is determined based upon the following equation: Ki=IC50/(1+L/KD) where L is the concentration of the radioactive ligand used and KD is the dissociation constant of the ligand for the receptor, both expressed in nM.

[2] = [3H]-LSD 3.0 nM, Hela cell membranes expressing human cloned 5-HT6 receptors, 120 min at room temperature, read-out: 5-HT6 Binding Ki

T1 sequence (P50406 whole entry): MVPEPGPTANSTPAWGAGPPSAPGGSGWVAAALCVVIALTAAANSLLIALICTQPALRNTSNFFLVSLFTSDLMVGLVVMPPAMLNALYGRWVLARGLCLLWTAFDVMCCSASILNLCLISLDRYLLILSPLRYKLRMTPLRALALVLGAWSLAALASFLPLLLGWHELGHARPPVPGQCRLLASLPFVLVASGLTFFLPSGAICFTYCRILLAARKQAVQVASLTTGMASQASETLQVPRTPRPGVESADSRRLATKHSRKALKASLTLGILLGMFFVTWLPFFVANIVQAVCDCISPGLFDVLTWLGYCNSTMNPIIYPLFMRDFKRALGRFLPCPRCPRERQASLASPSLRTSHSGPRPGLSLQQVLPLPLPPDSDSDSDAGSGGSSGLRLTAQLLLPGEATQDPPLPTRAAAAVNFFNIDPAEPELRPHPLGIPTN

Row | Compound | Ki [1, 2] | Ki [1] | melting point
1 | O=S(=O)(c1ccccc1)c1cn(CC2CCNCC2)c2ccccc12 [Example 4, 3-(Phenylsulfonyl)-1-(Piperidin-4-ylmethyl)-1H-indole Hydrochloride] | 27 nM |  | 
2 | O=S(=O)(c1ccccc1)c1cn(C2CCCN(Cc3ccccc3)C2)c2ccccc12 (stereo not drawn) [Example 8, 1-(1-Benzylpiperidin-3-yl)-3-(phenylsulfonyl)-1H-indole] | 122 nM |  | 
3 | O=S(=O)(c1ccccc1)c1cn(C2CCCNC2)c2ccccc12 (stereo not drawn) [Example 9, 3-(Phenylsulfonyl)-1-(piperidin-3-yl)-1H-indole Hydrochloride] | 13 nM |  | 
4 | O=S(=O)(c1ccccc1)c1cn(C2CCN(Cc3ccccc3)CC2)c2ccccc12 [Example 12] |  | 49 nM | 288 to 291 °C
5 | O=S(=O)(c1ccccc1)c1cn(C2CCNCC2)c2ccccc12 [Example 13] | 91 nM |  | 294 to 297 °C
6 | O=S(=O)(c1cccc2ccccc12)c1cn(C2CCCNC2)c2ccccc12 (stereo not drawn) [Example 14] | 21 nM |  | > 180 °C (dec.)
7 | O=S(=O)(c1cn(C2CCCNC2)c2ccccc12)c1cccc2cccnc12 (stereo not drawn) [Example 15] | 6 nM |  | > 195 °C (dec.)
8 | O=S(=O)(c1cccc(Cl)c1)c1cn(C2CCCNC2)c2ccccc12 (stereo not drawn) [Example 17] | 5 nM |  | > 150 °C (dec.)
9 | COc1ccc2c(c1)c(S(=O)(=O)c1cccc(F)c1)cn2C1CCCNC1 (stereo not drawn) [Example 18] | 11 nM |  | 267 to 270 °C
10 | COc1ccc2c(c1)c(S(=O)(=O)c1cccc(F)c1)cn2C1CCCN(C)C1 (stereo not drawn) [Example 19] | 68 nM |  | 262 to 265 °C
11 | O=S(=O)(c1cccc(F)c1)c1cn(C2CCCNC2)c2ccc(F)cc12 (stereo not drawn) [Example 20] | 4 nM |  | 
12 | O=S(=O)(c1cccc(F)c1)c1cn(C2CCCNC2)c2ccc(Cl)cc12 (stereo not drawn) [Example 22] | 29 nM |  | 
13 | CN1CCCC(n2cc(S(=O)(=O)c3cccc(F)c3)c3cc(Cl)ccc32)C1 (stereo not drawn) [Example 23] | 62 nM |  | 242 to 245 °C
